Structures can show the parent of a compound that is named as a salt.
Test system: mice
Assay: SmartCube in vivo neuropharmacological behavioral assay
Details: for minimal effective dose: Mus musculus, ip, dose having 50% or more total activity in SmartCube, i.p., read-out: MED (minimal effective dose); for AD: antidepressant, percent probability / AG: analgesic, percent probability / AP: antipsychotic, percent probability / AX: anxiolytic, percent probability / CE: cognitive enhancer, percent probability / HA: hallucinogenic, percent probability / MS: mood stabilizer, percent probability / PS, percent probability / SD: sedative hypnotic, percent probability / SE: side effects, percent probability / UN: uncharacterized CNS activity, percent probability / XG: anxiogenic, percent probability: SmartCube, i.p. 15 min before test, at the MED
Experimental: The compounds were evaluated for their CNS related properties (e.g., the treatment, prevention or diagnosis of CNS or CNS-related disorders and/or amelioration of symptoms) using neuropharmacological screening methods described in S. L. Roberts et al., Front. Neurosci. 2011, 5:103 (hereinafter referred to as “Roberts,” the contents of which are incorporated herein by reference in their entirety).
According to Roberts, intact systems are useful in detecting improvement in disease-relevant endpoints, because psychiatric diseases generally result from disorders of cell-cell communication or circuitry. The endpoints are typically behavioral in nature, often requiring human observation and interpretation. In order to test multiple compounds for behavioral effects relevant to neurological and psychiatric diseases and disorders, PsychoGenics, Inc. (Paramus, N.J. “PGI”) developed SmartCube®, an automated system in which behaviors of compound-treated mice are captured by digital video and analyzed with computer algorithms to facilitate testing of multiple compounds for behavioral effects relevant to psychiatric disease. (D. Brunner et al., Drug Discov. Today 2002, 7:S107-S112; Alexandrov et al., Eur. J. Pharmacol. 2015, 753:127-134; the contents of each of which are incorporated herein by reference in their entirety).
The SmartCube® system is described in Example 2.2 of U.S. Pat. No. 9,758,529 and Example 289 of WIPO Publication No. WO2018/023070, the contents of each of which are incorporated herein by reference in their entirety.
According to the present disclosure, compounds identified may be evaluated using the SmartCube® system. The results of such analysis correlate certain patterns or combinations of behaviors to CNS effects along a percent probability scale of 0-100 where zero (O) reflects the limit of quantitation (LOQ).
The compounds of the present disclosure were evaluated for their CNS related properties (e.g., the treatment, prevention or diagnosis of CNS or CNS-related disorders and/or amelioration of symptoms) using neuropharmacological screening methods described in S. L. Roberts et al., Front. Neurosci. 2011, 5:103 (hereinafter referred to as “Roberts,” the contents of which are incorporated herein by reference in their entirety).
The SmartCube® system described herein was utilized to compare the behavioral signature of a test compound to a database of behavioral signatures obtained using a large set of diverse reference compounds (including but not limited to antipsychotics, anxiolytics, antidepressants and bipolar disorder medicine), thereby predicting the neuropharmacological effects of a test compound by similarity to major classes of compounds. It produces an activity signature indicating the probability that the activity of the test compound at the administered dose matches a given class of neuropharmacological agents. The test compound is simultaneously compared against multiple classes of agents; thus, a separate probability is generated for each behavioral effect measured (such as but not limited to anxiolytic activity and analgesic activity).
The compounds of the present disclosure were dissolved in a mixture of Pharmasolve™ (N-methyl-2-pyrrolidone (NMP)) and were injected i.p. 15 min. before the behavioral test. For each compound, injections were administered at different dose levels (e.g., 0.3, 1, 3, 10 and 30 mg per kg (mpk)). A compound's minimal effective dose (MED; see Table 3) is a measure of the compound's potency. The MED was defined as the dose (in mpk) having 50% or more total activity in SmartCube®. For each behavioral effect measured, results at the MED are presented. CNS activities of the compounds were recorded (see Table 2). In Table 1, a key to the percent probabilities (probability×100) for each behavioral effect (“X”) are defined provided, where LOQ is the limit of quantification.

Structure (SMILES) | minimal effective dose | AD: antidepressant, percent probability | AG: analgesic, percent probability | AP: antipsychotic, percent probability | AX: anxiolytic, percent probability | CE: cognitive enhancer, percent probability | HA: hallucinogenic, percent probability | MS: mood stabilizer, percent probability | PS, percent probability | SD: sedative hypnotic, percent probability | SE: side effects, percent probability | UN: uncharacterized CNS activity, percent probability | XG: anxiogenic, percent probability
CCC(C)N1C2C=CC1c1ccccc12 (stereo not shown) [Compound 55, 11-(Butan-2-yl)-11-azatricyclo[6.2.1.0^2,7]undeca-2,4,6,9-tetraene hydrochloride] | 10 to 30 mg/kg | +++ (25% ≤ X < 50%) | + (LOQ ≤ X < 5%) | + (LOQ ≤ X < 5%) | ++ (5% ≤ X < 25%) | + (LOQ ≤ X < 5%) | + (LOQ ≤ X < 5%) | + (LOQ ≤ X < 5%) | ++ (5% ≤ X < 25%) | + (LOQ ≤ X < 5%) | + (LOQ ≤ X < 5%) | +++ (25% ≤ X < 50%) | + (LOQ ≤ X < 5%)
Cc1cccc2c1C1CCC2N1C(C)C (stereo not shown) [Compound 31, 3-Methyl-11-(propan-2-yl)-11-azatricyclo[6.2.1.0^2,7]undeca-2,4,6-triene hydrochloride] | 10 to 30 mg/kg | ++ (5% ≤ X < 25%) | ++ (5% ≤ X < 25%) | + (LOQ ≤ X < 5%) | ++ (5% ≤ X < 25%) | + (LOQ ≤ X < 5%) | + (LOQ ≤ X < 5%) | + (LOQ ≤ X < 5%) | + (LOQ ≤ X < 5%) | ++ (5% ≤ X < 25%) | + (LOQ ≤ X < 5%) | +++ (25% ≤ X < 50%) | + (LOQ ≤ X < 5%)
Cc1ccc2c(c1)C1CCC2N1C(C)C (stereo not shown) [Compound 21, 4-Methyl-11-(propan-2-yl)-11-azatricyclo[6.2.1.0^2,7]undeca-2,4,6-triene hydrochloride] | 10 to 30 mg/kg | ++ (5% ≤ X < 25%) | + (LOQ ≤ X < 5%) | + (LOQ ≤ X < 5%) | ++ (5% ≤ X < 25%) | + (LOQ ≤ X < 5%) | + (LOQ ≤ X < 5%) | + (LOQ ≤ X < 5%) | + (LOQ ≤ X < 5%) | + (LOQ ≤ X < 5%) | ++++ (50% ≤ X <1 00%) | ++ (5% ≤ X < 25%) | + (LOQ ≤ X < 5%)
COc1cccc2c1C1CCC2N1C(C)C (stereo not shown) [Compound 18, 3-Methoxy-11-(propan-2-yl)-11-azatricyclo[6.2.1.0^2,7]undeca-2,4,6-triene hydrochloride] | 10 to 30 mg/kg | ++ (5% ≤ X < 25%) | + (LOQ ≤ X < 5%) | + (LOQ ≤ X < 5%) | ++ (5% ≤ X < 25%) | ++ (5% ≤ X < 25%) | + (LOQ ≤ X < 5%) | + (LOQ ≤ X < 5%) | + (LOQ ≤ X < 5%) | ++ (5% ≤ X < 25%) | +++ (25% ≤ X < 50%) | + (LOQ ≤ X < 5%) | + (LOQ ≤ X < 5%)
CC(C)C(C)N1C2CCC1c1ccccc12 (stereo not shown) [Compound 47, 11-(3-Methylbutan-2-yl)-11-azatricyclo[6.2.1.0^2,7]undeca-2,4,6-triene hydrochloride] | 10 to 30 mg/kg | ++++ (50% ≤ X <1 00%) | + (LOQ ≤ X < 5%) | + (LOQ ≤ X < 5%) | + (LOQ ≤ X < 5%) | + (LOQ ≤ X < 5%) | + (LOQ ≤ X < 5%) | + (LOQ ≤ X < 5%) | + (LOQ ≤ X < 5%) | + (LOQ ≤ X < 5%) | + (LOQ ≤ X < 5%) | ++ (5% ≤ X < 25%) | + (LOQ ≤ X < 5%)
CC1CC2NC1c1ccccc12 (stereo not shown) [Compound 50, 9-Methyl-11-azatricyclo[6.2.1.0^2,7]undeca-2,4,6-triene hydrochloride] | 10 to 30 mg/kg | ++ (5% ≤ X < 25%) | ++ (5% ≤ X < 25%) | + (LOQ ≤ X < 5%) | + (LOQ ≤ X < 5%) | ++ (5% ≤ X < 25%) | + (LOQ ≤ X < 5%) | + (LOQ ≤ X < 5%) | + (LOQ ≤ X < 5%) | + (LOQ ≤ X < 5%) | + (LOQ ≤ X < 5%) | +++ (25% ≤ X < 50%) | + (LOQ ≤ X < 5%)
CC(C)N1C2CCC1c1cc(Cl)ccc12 (stereo not shown) [Compound 28, 4-Chloro-11-(propan-2-yl)-11-azatricyclo[6.2.1.0^2,7]undeca-2,4,6-triene hydrochloride] | > 30 mg/kg | +++ (25% ≤ X < 50%) | + (LOQ ≤ X < 5%) | + (LOQ ≤ X < 5%) | ++ (5% ≤ X < 25%) | + (LOQ ≤ X < 5%) | + (LOQ ≤ X < 5%) | + (LOQ ≤ X < 5%) | + (LOQ ≤ X < 5%) | + (LOQ ≤ X < 5%) | ++ (5% ≤ X < 25%) | ++ (5% ≤ X < 25%) | + (LOQ ≤ X < 5%)

Source: US20230109801A1 (Blue Oak Pharmaceuticals, Inc., priority 2020, published 2023)
